# Experimental data taken from patent US8916607B2, “Use of piperphentonamine or salts thereof in manufacture of medicaments for treating brain diseases” (Guangzhou Municipal Zhongwei Biotechnology Limited Company, priority 2009, dated 2014).
# Marks after values point to notes of the source that are not given here.
# What was measured:
# [1] = test system: learning and memory dysfunction caused by cerebral ischemia reperfusion; assay: platform-diving experiment in dementia model of mice caused by ischemia reperfusion; assay type: in vivo, Kunming mice; settings: for memory achievement Error times / Learning achievement Error times: in 5 min; for memory achievement Error times: test-retest period; for Learning achievement Error times: training period
# Description: The animals were randomly divided into five groups: sham operation group, model group, piperphentonamine hydrochloride 1 mg/kg group, 2 mg/kg group, 4 mg/kg group. There were 10 mice in each group.
# After the mice were fasted for 16 hours, we established the dementia model of mice caused by ischemia reperfusion. The preparatory steps were proceeded as follows: anesthetizing mouse by sodium pentobarbital (60 mg/kg, ip), supinely immobilizing on a board, incising on the midmost of neck, isolating bilateral common carotid artery, and threading with zero-size silk thread. Afterwards, operation steps were proceeded as follows: blocking the blood flow of bilateral common carotid artery for 10 min, then resuming the blood flow for 10 min, repeating the blocking/resuming steps for 3 times, and suturing the skin. The mice were put in normal feeding conditions. Bilateral common carotid artery is only isolated for sham operation group.
# After ischemia reperfusion for 10 min, the drugs are injected on tail vein, after ischemia reperfusion for 24 h, administering for the second time. Carrying on the platform-diving experiment after administering for half an hour. The mice under test are put into the platform-diving instrument, adapting the environment for 3 min, and then the bottom plate being electrified, observing the time when the mouse jump onto the high platform (reaction time) and the times which the mouse jump down from the high platform and are shocked by electricity in 5 min (the number of errors in the training period). After 24 h, administering again, then carry on the second platform-diving experiment to measure the function of obtaining memory. Putting the mouse on the platform of experimental instrument, electrifying the bottom plate at the same time, recording the time when the mouse jump down from the high platform (latency) and the times which shock by electricity in 5 min (the times of error in test-retest period).
# [2] = test system: ischemia reperfusion injury of mouse brain; assay: SOD activity, MDA and GSH content of brain homogenate after cerebral ischemia reperfusion; assay type: in vivo, Kunming mice
# Description: Ischemia reperfusion method in the mouse and the administration method are the same as above. After ischemia reperfusion is completed, executing by decollating, removing the brain and making homogenate by phosphate buffer in 0° C., determining the activity of SOD by pyrogallol autoxidation method, the content of MDA by TBA method, and the content of GSH by DTNB method, quantitate the protein by Coomassie brilliant blue method.
# [3] = test system: infective brain edema of rats (pertussis bacteria liquid); assay: infective cerebral edema: IL-1β, TNF-α (ELISA) and NO (Griess) in cerebral tissue; assay type: in vivo, SD rats; settings: rat cerebral tissue, 4 h
# Description: Determine the content of IL-1β, TNF-α and NO by using ELISA and Griess method.
# Model preparation was same as that of example 4. Piperphentonamine acetate group was intraperitoneally injected with 0.5 mg/kg daily for 2 days 48 h before the injection of pertussis bacterial liquid. Rats in each group were decollated after being injected with bacterial liquid or saline 4 h. ELISA method and Griess method were used to measure the content of IL-1β, TNF-α and NO in brain homogenate of infectious brain edema model of rats.
# [4] = test system: cerebral hemorrhage in rats induced by collagenase; assay: ICH model induced by collagenase: brain water content (BWC); assay type: in vivo, Wistar rats
# Description: Animals are randomly divided into five groups: sham operation 24 h group; cerebral hemorrhage (Intracerebral Haemorrhage, ICH)+physiological saline group (model); ICH+piperphentonamine hydrochloride (JBTA, 2 mg/kg) group, called as high dose group (h); ICH+piperphentonamine hydrochloride (JBTA, 0.5 mg/kg) group, called as low dose group (1); ICH+nimodipine (Nim, 0.5 mg/kg) group. The last four groups are divided into 4 h, 8 h, 12 h, 24 h as four time subgroups respectively. Physiological saline solution, piperphentonamine hydrochloride and nimodipine are intravenously injected from rat tail before the ICH model is established for 30 minutes, once a day. Injecting slowly, the total amount of drug liquid is controlled in 1 ml/200 g body weight: physiological saline solution also being administered in 1 ml/200 g body weight. Each group has 7 Wistar rats.
# Observing the influence of piperphentonamine hydrochloride on the brain water content of intracerebral hemorrhage in rats in 4 h, 8 h, 12 h, 24 h, the animals of the different groups is anesthetized by chloral hydrate at predetermined time point, and decollating and taking the brain rapidly, putting the brain tissue on a filter paper wetted by saline solution to prevent water evaporating. Removing the leptomeninges and blood, cutting and taking the front half portion of brain tissue centered by the hole for the insertion needle, weighing precisely (accurate to 0.1 mg). It is controlled in 5 min to take the brain to finish weigh. Then putting in 95° C. constant temperature oven for 24 h, weighing the dry weight. The brain water content is calculated according to Blliot formula: BWC=(wet weight−dry weight)/wet weight×100%.
# Divide the animals randomly into five groups: sham operation (sham) 24 h group; ICH+normal saline group (model); ICH+piperphentonamine maleate (4 mg/kg) group, namely high dose group (h); ICH+piperphentonamine maleate (2 mg/kg) group, namely low dose group (1); ICH+nimodipine (0.5 mg/kg) group. The last four groups were divided into four time subgroup of 4 h, 8 h, 12 h and 24 h. Physiological solution, piperphentonamine maleate and nimodipine were injected intravenous from rat tail vein 30 minutes before the ICH model made, once a day. Inject slowly, the total amount of drug liquid was controlled in 1 ml/200 g body weight: normal saline was also administered in 1 ml/200 g body weight. Each group has seven Wistar rats.
# [5] = test system: cerebral hemorrhage in rats induced by collagenase; assay: ICH model induced by collagenase: NE in brain tissue by ELISA; assay type: in vivo, Wistar rats
# Excerpt: Rats in each group were anesthetized by chloral hydrate, decollated rapidly and the brains were taken out. The brain tissue around the hole was cut and procured, weighed precisely, and made into a 10% tissue homogenate using a glass homogenizer in an ice bath environment with physiological saline as homogenized medium, the supernatant of which was taken to be determined the NE activity using ELISA method.
structure (smiles),measurement,setting,value
"CN(CCC(=O)/C=C/c1ccc(O)cc1)CCc1ccc2c(c1)OCO2.Cl [piperphentonamine hydrochloride, Piperphentonamine hydrochloride]",Learning achievement Reaction time s,[1]; 1 mg/kg tail vein,16.53 ± 11.75 s
same,memory achievement latency s,[1]; 1 mg/kg tail vein,249.84 ± 133.55 s
same,memory achievement Error times,[1]; 1 mg/kg tail vein,1.31 ± 0.58
same,Learning achievement Error times,[1]; 1 mg/kg tail vein,5.37 ± 3.63
same,Learning achievement Reaction time s,[1]; 2 mg/kg tail vein,13.34 ± 8.85 s
same,memory achievement latency s,[1]; 2 mg/kg tail vein,308.13 ± 97.73 s
same,memory achievement Error times,[1]; 2 mg/kg tail vein,0.73 ± 0.58
same,Learning achievement Error times,[1]; 2 mg/kg tail vein,5.08 ± 3.34
same,Learning achievement Reaction time s,[1]; 4 mg/kg tail vein,7.11 ± 4.06 s
same,memory achievement latency s,[1]; 4 mg/kg tail vein,352.79 ± 141.5 s
same,memory achievement Error times,[1]; 4 mg/kg tail vein,0.58 ± 1.45
same,Learning achievement Error times,[1]; 4 mg/kg tail vein,4.5 ± 3.05
same,GSH,[2]; 20 mg/kg,10.34 ± 3.17 mg/g pr
same,MDA,[2]; 20 mg/kg,4.48 ± 1.03 nmol/g pr
same,SOD,[2]; 20 mg/kg,0.34 ± 0.02 Ku/g pr
same,GSH,[2]; 40 mg/kg,13.1 ± 4.34 mg/g pr
same,MDA,[2]; 40 mg/kg,3.74 ± 0.67 nmol/g pr
same,SOD,[2]; 40 mg/kg,0.37 ± 0.02 Ku/g pr
same,GSH,[2]; 80 mg/kg,14.77 ± 4.61 mg/g pr
same,MDA,[2]; 80 mg/kg,3.53 ± 0.76 nmol/g pr
same,SOD,[2]; 80 mg/kg,0.42 ± 0.04 Ku/g pr
same,IL-1β,[3],318.4 ± 43.8^2)3) pg/g
same,NO,[3],86.1 ± 5.9^2)3) nmol/g
same,TNF-α,[3],499.7 ± 134.9^2)3) pg/g
same,brain water content (%),"[4]; 0.5 mg/kg iv 30 min before ICH, 4 h",79.90 ± 0.84^Δ %
same,brain water content (%),"[4]; 0.5 mg/kg iv 30 min before ICH, 8 h",81.19 ± 0.78^ΔΔ %
same,brain water content (%),"[4]; 0.5 mg/kg iv 30 min before ICH, 12 h",82.70 ± 0.76^ΔΔ %
same,brain water content (%),"[4]; 0.5 mg/kg iv 30 min before ICH, 24 h",84.98 ± 0.65^ΔΔ %
same,brain water content (%),"[4]; 2 mg/kg iv 30 min before ICH, 4 h",79.29 ± 0.69 %
same,brain water content (%),"[4]; 2 mg/kg iv 30 min before ICH, 8 h",79.73 ± 0.53^Δ** %
same,brain water content (%),"[4]; 2 mg/kg iv 30 min before ICH, 12 h",80.75 ± 0.19^ΔΔ** %
same,brain water content (%),"[4]; 2 mg/kg iv 30 min before ICH, 24 h",82.38 ± 0.73^ΔΔ** %
same,NE,"[5]; 2 mg/kg, ICH rat brain tissue homogenate",1.61 ± 0.044^a ng/ml
same,brain tissue NE activity,"[5]; high and low dose group (2, 0.5 mg/kg)",could decrease the brain tissue NE activity significantly
